# Data: publication PMC5218480 (PLoS ONE, 2017)
# Test system: MV-4-11 cells
# Assay: Gene expression microarray analysis (Affymetrix PrimeView) and GSEA
# Assay type: cell-based, human
# Design: RFU PODN (11730768_x_at) / Fold change /veh PODN (11730768_x_at) / RFU LINC00158 (11744669_a_at) / Fold change /veh LINC00158 (11744669_a_at) / RFU DUSP10 (11751237_a_at) / Fold change /veh DUSP10 (11751237_a_at) / RFU ID3 (11757404_x_at) / Fold change /veh ID3 (11757404_x_at) / RFU PLEKHG5 (11737974_s_at) / Fold change /veh PLEKHG5 (11737974_s_at) / RFU LRRC4B (11730491_at) / Fold change /veh LRRC4B (11730491_at) / RFU GIMAP4 (11747438_a_at) / Fold change /veh GIMAP4 (11747438_a_at) / RFU KRT8 (11758183_x_at) / Fold change /veh KRT8 (11758183_x_at) / RFU CNN1 (11734310_a_at) / Fold change /veh CNN1 (11734310_a_at) / RFU VPS37D (11726825_at) / Fold change /veh VPS37D (11726825_at) / RFU C10orf10 (11716522_x_at) / Fold change /veh C10orf10 (11716522_x_at) / RFU KIR2DL2 /// KIR2DL4 /// KIR2DL5A /// KIR2DL5B /// KIR2DS1 /// KIR2DS2 /// KIR2DS3 /// KIR2DS4 /// KIR3DL3 /// KIR3DL3 /// KIR3DS1 (11738374_at) / Fold change /veh KIR2DL2 /// KIR2DL4 /// KIR2DL5A /// KIR2DL5B /// KIR2DS1 /// KIR2DS2 /// KIR2DS3 /// KIR2DS4 /// KIR3DL3 /// KIR3DL3 /// KIR3DS1 (11738374_at) / RFU C1QL1 (11718748_at) / Fold change /veh C1QL1 (11718748_at) / RFU TMPRSS4 (11747572_a_at) / Fold change /veh TMPRSS4 (11747572_a_at) / RFU HAMP (11756126_x_at) / Fold change /veh HAMP (11756126_x_at) / RFU RNFT2 (11725882_a_at) / Fold change /veh RNFT2 (11725882_a_at) / RFU NR4A2 (11747474_a_at) / Fold change /veh NR4A2 (11747474_a_at) / RFU ABCC12 (11746883_a_at) / Fold change /veh ABCC12 (11746883_a_at) / RFU TMEM136 (11760407_x_at) / Fold change /veh TMEM136 (11760407_x_at) / RFU CLDN22 /// WWC2 (11732394_at) / Fold change /veh CLDN22 /// WWC2 (11732394_at) / RFU HLA-DPB1 (11760878_x_at) / Fold change /veh HLA-DPB1 (11760878_x_at) / RFU SPINT1 (11716480_a_at) / Fold change /veh SPINT1 (11716480_a_at) / RFU GAP43 (11754022_s_at) / Fold change /veh GAP43 (11754022_s_at) / RFU A4GNT (11735810_at) / Fold change /veh A4GNT (11735810_at) / RFU PRB3 (11715151_x_at) / Fold change /veh PRB3 (11715151_x_at) / RFU TUBB4B (11761932_at) / Fold change /veh TUBB4B (11761932_at) / RFU CAPN14 (11732068_a_at) / Fold change /veh CAPN14 (11732068_a_at) / RFU TMCC2 (11721928_a_at) / Fold change /veh TMCC2 (11721928_a_at) / RFU IRGQ (11745062_a_at) / Fold change /veh IRGQ (11745062_a_at) / RFU FAM174B (11720279_a_at) / Fold change /veh FAM174B (11720279_a_at) / RFU TMPRSS4 (11748680_a_at) / Fold change /veh TMPRSS4 (11748680_a_at) / RFU FAM212B (11763350_a_at) / Fold change /veh FAM212B (11763350_a_at) / RFU PLEKHG5 (11743358_a_at) / Fold change /veh PLEKHG5 (11743358_a_at) / RFU ZSCAN30 (11745921_a_at) / Fold change /veh ZSCAN30 (11745921_a_at) / RFU CMKLR1 (11741424_a_at) / Fold change /veh CMKLR1 (11741424_a_at) / RFU LOC101060620 /// MAPK8IP1 (11723275_at) / Fold change /veh LOC101060620 /// MAPK8IP1 (11723275_at) / RFU SPTSSB (11747773_x_at) / Fold change /veh SPTSSB (11747773_x_at) / RFU PRSS12 (11739890_at) / Fold change /veh PRSS12 (11739890_at) / RFU BIN1 (11741810_x_at) / Fold change /veh BIN1 (11741810_x_at) / RFU WNT11 (11732464_a_at) / Fold change /veh WNT11 (11732464_a_at) / RFU C10orf10 (11716521_a_at) / Fold change /veh C10orf10 (11716521_a_at) / RFU C5orf56 (11738089_at) / Fold change /veh C5orf56 (11738089_at) / RFU CYB561 (11721691_x_at) / Fold change /veh CYB561 (11721691_x_at) / RFU ANKRD19P (11752326_a_at) / Fold change /veh ANKRD19P (11752326_a_at) / RFU OR2T12 /// OR2T33 /// OR2T8 (11738714_s_at) / Fold change /veh OR2T12 /// OR2T33 /// OR2T8 (11738714_s_at) / RFU VCAN (11748164_a_at) / Fold change /veh VCAN (11748164_a_at) / RFU JSRP1 (11732532_at) / Fold change /veh JSRP1 (11732532_at) / RFU KRTAP10-11 (11738290_x_at) / Fold change /veh KRTAP10-11 (11738290_x_at) / RFU MYO3A (11730013_a_at) / Fold change /veh MYO3A (11730013_a_at) / RFU EBF3 (11725865_a_at) / Fold change /veh EBF3 (11725865_a_at) / RFU CAMK2N1 (11719241_x_at) / Fold change /veh CAMK2N1 (11719241_x_at) / RFU C5orf56 (11738088_a_at) / Fold change /veh C5orf56 (11738088_a_at) / RFU OLFML3 (11715873_a_at) / Fold change /veh OLFML3 (11715873_a_at) / RFU LOC100653217 /// NTM (11731650_a_at) / Fold change /veh LOC100653217 /// NTM (11731650_a_at) / RFU MAPK11 (11762145_a_at) / Fold change /veh MAPK11 (11762145_a_at) / RFU FIZ1 (11724087_x_at) / Fold change /veh FIZ1 (11724087_x_at) / RFU OASL (11726364_x_at) / Fold change /veh OASL (11726364_x_at) / RFU SOX15 (11748057_x_at) / Fold change /veh SOX15 (11748057_x_at) / RFU CD79A (11719716_a_at) / Fold change /veh CD79A (11719716_a_at) / RFU HIST1H1D (11736915_at) / Fold change /veh HIST1H1D (11736915_at) / RFU CASKIN2 (11723855_a_at) / Fold change /veh CASKIN2 (11723855_a_at) / RFU LOC730098 (11760151_x_at) / Fold change /veh LOC730098 (11760151_x_at) / RFU OR4N2 (11742367_at) / Fold change /veh OR4N2 (11742367_at) / RFU PRRT2 (11749266_a_at) / Fold change /veh PRRT2 (11749266_a_at) / RFU SNX32 (11753110_a_at) / Fold change /veh SNX32 (11753110_a_at) / RFU CDHR5 (11726645_a_at) / Fold change /veh CDHR5 (11726645_a_at) / RFU RCAN1 (11760418_a_at) / Fold change /veh RCAN1 (11760418_a_at) / RFU FAM167A (11723789_a_at) / Fold change /veh FAM167A (11723789_a_at) / RFU FAM26E (11764081_at) / Fold change /veh FAM26E (11764081_at) / RFU ISYNA1 (11749810_s_at) / Fold change /veh ISYNA1 (11749810_s_at) / RFU ACY1 (11761880_at) / Fold change /veh ACY1 (11761880_at) / RFU 11764098_at / Fold change /veh 11764098_at / RFU SAMD14 (11745864_x_at) / Fold change /veh SAMD14 (11745864_x_at) / RFU NPB (11741838_a_at) / Fold change /veh NPB (11741838_a_at) / RFU TMPRSS6 (11731388_a_at) / Fold change /veh TMPRSS6 (11731388_a_at) / RFU KRTAP10-2 (11738614_at) / Fold change /veh KRTAP10-2 (11738614_at) / RFU ARHGAP8 /// PRR5-ARHGAP8 (11727945_x_at) / Fold change /veh ARHGAP8 /// PRR5-ARHGAP8 (11727945_x_at) / RFU KRTAP5-7 /// NADSYN1 (11734609_at) / Fold change /veh KRTAP5-7 /// NADSYN1 (11734609_at) / RFU RASL12 (11751679_a_at) / Fold change /veh RASL12 (11751679_a_at) / RFU CDKN2B (11736163_a_at) / Fold change /veh CDKN2B (11736163_a_at) / RFU PRF1 (11729649_at) / Fold change /veh PRF1 (11729649_at) / RFU, ZNF638 /// ZNF638-IT1 / Fold change vs veh, ZNF638 /// ZNF638-IT1 / RFU, PANK3 / Fold change vs veh, PANK3 / RFU, SH3YL1 / Fold change vs veh, SH3YL1 / RFU, ZEB2 / Fold change vs veh, ZEB2 / RFU, NRIP1 / Fold change vs veh, NRIP1 / RFU, PTTG1IP / Fold change vs veh, PTTG1IP / RFU, CAPN2 / Fold change vs veh, CAPN2 / RFU, MED14 / Fold change vs veh, MED14 / RFU, SNORA58 / Fold change vs veh, SNORA58 / RFU, C1orf63 / Fold change vs veh, C1orf63 / RFU, LRRFIP1 / Fold change vs veh, LRRFIP1 / RFU, NDUFAF7 / Fold change vs veh, NDUFAF7 / RFU, SLC12A2 / Fold change vs veh, SLC12A2 / RFU, IBTK / Fold change vs veh, IBTK / RFU, ESF1 / Fold change vs veh, ESF1 / Fold change vs veh, TMEM50B / RFU, TAOK1 / Fold change vs veh, TAOK1 / RFU, ACBD3 / Fold change vs veh, ACBD3 / RFU, TMA16 / Fold change vs veh, TMA16 / RFU, RWDD3 / Fold change vs veh, RWDD3 / RFU, BCAT1 / Fold change vs veh, BCAT1 / RFU, EDEM3 / Fold change vs veh, EDEM3 / RFU, TMEM33 / Fold change vs veh, TMEM33 / RFU, WDR75 / Fold change vs veh, WDR75 / RFU, AHCTF1 / Fold change vs veh, AHCTF1 / RFU, TFRC / Fold change vs veh, TFRC / RFU, ZDHHC17 / Fold change vs veh, ZDHHC17 / RFU, NOM1 / Fold change vs veh, NOM1 / RFU, ARL8B / Fold change vs veh, ARL8B / RFU, ZBTB11 / Fold change vs veh, ZBTB11 / RFU, TAMM41 / Fold change vs veh, TAMM41 / RFU, KIAA1704 /// LOC100996395 / Fold change vs veh, KIAA1704 /// LOC100996395 / RFU, ING1 / Fold change vs veh, ING1 / RFU, TRMT61B / Fold change vs veh, TRMT61B / RFU, FUBP3 / Fold change vs veh, FUBP3 / RFU, TP53 / Fold change vs veh, TP53 / RFU, TNKS2 / Fold change vs veh, TNKS2 / RFU, ZFP14 / Fold change vs veh, ZFP14 / RFU, ACTR2 / Fold change vs veh, ACTR2 / RFU, PPP3R1 / Fold change vs veh, PPP3R1 / RFU, PIK3R1 / Fold change vs veh, PIK3R1 / RFU, HNRNPA1 / Fold change vs veh, HNRNPA1 / RFU, RNF170 / Fold change vs veh, RNF170 / RFU, ZNF28 / Fold change vs veh, ZNF28 / RFU, RNGTT / Fold change vs veh, RNGTT / RFU, OGT / Fold change vs veh, OGT / RFU, BRD1 / Fold change vs veh, BRD1 / RFU, MARS / Fold change vs veh, MARS / RFU, ZNF655 / Fold change vs veh, ZNF655 / RFU, FAHD1 / Fold change vs veh, FAHD1 / RFU, BDP1 / Fold change vs veh, BDP1 / RFU, LRRCC1 / Fold change vs veh, LRRCC1 / RFU, ARID1A / Fold change vs veh, ARID1A / RFU, ZNF146 / Fold change vs veh, ZNF146 / RFU, ZNF330 / Fold change vs veh, ZNF330 / RFU, GPN3 / Fold change vs veh, GPN3 / RFU, C9orf123 / Fold change vs veh, C9orf123 / RFU, N4BP2L2 / Fold change vs veh, N4BP2L2 / RFU, ARFIP1 / Fold change vs veh, ARFIP1 / RFU, FAM179B / Fold change vs veh, FAM179B / RFU, BCL10 / Fold change vs veh, BCL10 / RFU, UHRF1BP1L / Fold change vs veh, UHRF1BP1L / RFU, BET1 / Fold change vs veh, BET1 / RFU, CNOT2 / Fold change vs veh, CNOT2 / RFU, ZNF268 / Fold change vs veh, ZNF268 / Fold change vs veh, ZNF507 / RFU, DGCR2 / Fold change vs veh, DGCR2 / RFU, WDSUB1 / Fold change vs veh, WDSUB1 / Fold change vs veh, HSP90B1 /// MIR3652 / RFU, ADSS / Fold change vs veh, ADSS / RFU, GK / Fold change vs veh, GK / RFU, ZNF148 / Fold change vs veh, ZNF148 / RFU, TAF9 / Fold change vs veh, TAF9 / RFU, SLC1A5 / Fold change vs veh, SLC1A5 / RFU, SLMO2 / Fold change vs veh, SLMO2 / RFU, ABCC4 / Fold change vs veh, ABCC4 / RFU, LOC101060439 /// RAP1B / Fold change vs veh, LOC101060439 /// RAP1B / RFU, RFX7 / Fold change vs veh, RFX7 / RFU, GTPBP10 / Fold change vs veh, GTPBP10 / RFU, CNEP1R1 / Fold change vs veh, CNEP1R1 / RFU, BIVM-ERCC5 /// ERCC5 / Fold change vs veh, BIVM-ERCC5 /// ERCC5 / RFU, ILF3 / Fold change vs veh, ILF3 / RFU 11762660_at / Fold change /veh 11762660_at / RFU VCAN (11757783_s_at) / Fold change /veh VCAN (11757783_s_at) / RFU DDX43 (11728927_at) / Fold change /veh DDX43 (11728927_at) / RFU KRT8 (11758188_x_at) / Fold change /veh KRT8 (11758188_x_at) / RFU NKD1 (11759106_at) / Fold change /veh NKD1 (11759106_at) / RFU SRD5A1 (11742802_a_at) / Fold change /veh SRD5A1 (11742802_a_at) / RFU TPSAB1 /// TPSB2 (11721975_s_at) / Fold change /veh TPSAB1 /// TPSB2 (11721975_s_at) / RFU GSTM3 (11746129_a_at) / Fold change /veh GSTM3 (11746129_a_at) / RFU IL23R (11737362_x_at) / Fold change /veh IL23R (11737362_x_at) / RFU TMEM51 (11727254_a_at) / Fold change /veh TMEM51 (11727254_a_at) / RFU PIWIL2 (11732686_x_at) / Fold change /veh PIWIL2 (11732686_x_at) / RFU ORM1 (11744905_x_at) / Fold change /veh ORM1 (11744905_x_at) / RFU CCDC152 (11743942_at) / Fold change /veh CCDC152 (11743942_at) / RFU ECM1 (11717891_a_at) / Fold change /veh ECM1 (11717891_a_at) / RFU IL23R (11748794_a_at) / Fold change /veh IL23R (11748794_a_at) / RFU TNFAIP8L3 (11732012_x_at) / Fold change /veh TNFAIP8L3 (11732012_x_at) / RFU MBOAT4 (11741988_at) / Fold change /veh MBOAT4 (11741988_at) / RFU 11764193_at / Fold change /veh 11764193_at / RFU TMEM53 (11763286_at) / Fold change /veh TMEM53 (11763286_at) / RFU MAGEB2 (11727129_at) / Fold change /veh MAGEB2 (11727129_at) / RFU TMEM200A (11744735_a_at) / Fold change /veh TMEM200A (11744735_a_at) / RFU CCDC152 (11751479_a_at) / Fold change /veh CCDC152 (11751479_a_at) / RFU FAM211A (11726209_a_at) / Fold change /veh FAM211A (11726209_a_at) / RFU RGS16 (11746705_a_at) / Fold change /veh RGS16 (11746705_a_at) / RFU VCAN (11755009_s_at) / Fold change /veh VCAN (11755009_s_at) / RFU RHOB (11743442_s_at) / Fold change /veh RHOB (11743442_s_at) / RFU RGS16 (11720943_a_at) / Fold change /veh RGS16 (11720943_a_at) / RFU RGS16 (11720944_at) / Fold change /veh RGS16 (11720944_at) / RFU, VPS4B / Fold change vs veh, VPS4B / RFU, CREB1 / Fold change vs veh, CREB1 / RFU, DNAJC13 / Fold change vs veh, DNAJC13 / RFU, GNAQ / Fold change vs veh, GNAQ / RFU, CDK5R1 / Fold change vs veh, CDK5R1 / RFU, ZRANB3 / Fold change vs veh, ZRANB3 / RFU, CUL4A / Fold change vs veh, CUL4A / RFU, CCNY / Fold change vs veh, CCNY / RFU, UFL1 / Fold change vs veh, UFL1 / RFU, COG3 / Fold change vs veh, COG3 / RFU, DIAPH2 / Fold change vs veh, DIAPH2 / RFU, SKA2 / Fold change vs veh, SKA2 / RFU, AFF3 / Fold change vs veh, AFF3 / RFU, LMF1 / Fold change vs veh, LMF1 / RFU, IPO11 / Fold change vs veh, IPO11 / RFU, DFFB / Fold change vs veh, DFFB / RFU, FOXP1 / Fold change vs veh, FOXP1 / RFU, CARD8 / Fold change vs veh, CARD8 / RFU, STRN3 / Fold change vs veh, STRN3 / RFU, ADK / Fold change vs veh, ADK / RFU, RASSF2 / Fold change vs veh, RASSF2 / RFU, WIPF1 / Fold change vs veh, WIPF1 / RFU, LARP1B / Fold change vs veh, LARP1B / RFU, RASA1 / Fold change vs veh, RASA1 / RFU, RB1 / Fold change vs veh, RB1 / RFU, PPFIA1 / Fold change vs veh, PPFIA1 / RFU, MAT2A / Fold change vs veh, MAT2A / RFU, CCT5 / Fold change vs veh, CCT5 / RFU, WDR92 / Fold change vs veh, WDR92 / RFU, CUX1 / Fold change vs veh, CUX1 / RFU, TTC7A / Fold change vs veh, TTC7A / RFU, TMEM135 / Fold change vs veh, TMEM135 / RFU, DEPTOR / Fold change vs veh, DEPTOR / RFU, CPM / Fold change vs veh, CPM / RFU, DNAJB6 / Fold change vs veh, DNAJB6 / RFU, CACNA2D3 / Fold change vs veh, CACNA2D3 / RFU, DTX4 / Fold change vs veh, DTX4 / RFU, TFCP2 / Fold change vs veh, TFCP2 / RFU, GMCL1 /// GMCL1P1 / Fold change vs veh, GMCL1 /// GMCL1P1 / RFU, AEBP2 / Fold change vs veh, AEBP2 / RFU, SNHG1 /// SNORD22 /// SNORD25 /// SNORD26 /// SNORD27 /// SNORD28 /// SNORD29 /// SNORD31 / Fold change vs veh, SNHG1 /// SNORD22 /// SNORD25 /// SNORD26 /// SNORD27 /// SNORD28 /// SNORD29 /// SNORD31 / Fold change (Aza/veh), C12orf56 (ProbeSet 11735607_a_at) / Fold change (ACY-1035/veh), C12orf56 (ProbeSet 11735607_a_at) / Fold change (Aza/veh), FGFR1OP (ProbeSet 11751329_s_at) / Fold change (ACY-1035/veh), FGFR1OP (ProbeSet 11751329_s_at) / Fold change (Aza/veh), VPS36 (ProbeSet 11739960_a_at) / Fold change (ACY-1035/veh), VPS36 (ProbeSet 11739960_a_at) / RFU SYPL1 (11715823_x_at) / Fold change /veh SYPL1 (11715823_x_at) / RFU IGFBP7 (11715501_s_at) / Fold change /veh IGFBP7 (11715501_s_at) / RFU REEP3 (11722064_at) / Fold change /veh REEP3 (11722064_at) / RFU IGLL1 (11728026_x_at) / Fold change /veh IGLL1 (11728026_x_at): dose or concentration left out as unconfirmed
# Details: MV-4-11 cells, 48 hours
structure (smiles),measurement,value
Nc1ccc(-c2cccs2)cc1NC(=O)c1ccc2c(c1)cc(C1CC1)n2CCN1CCOCC1 [ACY-1035],Fold change /veh TMEM200A (11744735_a_at),1.19
